Data on 4 compounds can be found in US8148386B2, “Agent for the prevention and treatment of prostatic hyperplasia comprising pyrazolopyrimidinone compound” (priority 2006, dated 2012).

In data set [1] the test system is BPH rat models. The data set can be described thus: Repeated administration: intraurethral pressure in BPH rat models. Type of data set: in vivo, Wistar rats. As to conditions: oral 1, 5 and 20 mg/kg for 8 weeks; 5, 10 and 20 Hz electrostimulation of hypogastric nerves; FIGS. 1 to 4. The procedure:
In the present experiment, thirty-six male white Wistar rats of 300 to 350 g were randomly divided into six control groups of six rats. The first group (1) was left untreated as a normal control group and the other groups were those whose testicles were […]. From a couple of days after the operations, each rat in the third to sixth groups was given a daily hypodermic injection of 1 mg of testosterone and 0.01 mg of 17 beta-estradiol for 8 weeks. The second group (2) was those whose testicles were […] only; the third group (3) was treated with a solvent; the fourth group (4) was treated with 1 mg/kg of the pyrazolopyrimidinone compound of formula 1; the fifth group (5) was treated with 5 mg/kg of the pyrazolopyrimidinone compound of formula 1; and the sixth group (6) was treated with 20 mg/kg of the pyrazolopyrimidinone compound of formula 1, the fourth to sixth groups being orally administrated for 8 weeks. After 8 weeks, all rats were anesthetized by an intraperitoneal injection with 50 mg/kg of pentobarbital, and intubated with polyethylene needles. […] In the measurement, 5, 10 and 20 Hz of electrostimulations were applied to hypogastric nerves using a stainless steel anode electrode, and the measured results were shown in FIGS. 1 to 4.

Data set [2] in a line: Pharmacokinetic experiment in the human body (BPH patients). In kind it is in vivo. Here is the method: The test was carried out in a double-blind manner and the participants were administrated with the test drugs with 240 ml of water at 8:00 to 9:00 am of the test day. After administration, all participants were fasted for four hours. After the fast, they were served a lunch of standard diet and provided a dinner of standard diet nine hours after the lunch. Blood collections were carried out before administrating the test drugs and 0.5, 1, 1.5, 2, 2.5, 3, 4, 5, 6, 8, 12 and 24 hours after the administration on the test day. From the bloods collected, blood plasmas were separated and analyzed using high performance liquid chromatography (HPLC). […] of 0.1 M sodium carbonate and 1.0 ml of ethylether were added to each 0.5 ml of blood plasma and mixed well for one minute. Then, the resultant solutions were centrifuged at […] for three minutes. Subsequently, the supernatants were collected, from which organic solvents were volatilized using a Speed-Vac, to which […] of mobile phases were added, stirred and injected into the high performance liquid chromatography (HPLC).

In data set [3] the test system is BPH rat models. Briefly: Single administration: intraurethral pressure in BPH rat models. In kind it is in vivo, Wistar rats. Here is the method:
In the present experiment, thirty male white […] rats of 300 to 350 g were randomly divided into five control groups of six rats. The first group (1') was left untreated as a normal group and the other groups were those whose testicles were resected. From a couple of days after the operations, each rat in the third to fifth groups was given a daily hypodermic injection of 1 mg of testosterone and 0.01 mg of 17 beta-estradiol for 8 weeks. After 8 weeks, all rats were anesthetized by an intraperitoneal injection with 50 mg/kg of pentobarbital, and intubated with polyethylene needles. The second group (2') was those whose testicles were resected only; the third group (3') was treated with a solvent; the fourth group (4') was treated with 0.3 mg/kg of the pyrazolopyrimidinone compound of formula 1; and the fifth group (5') was treated with 1 mg/kg of the pyrazolopyrimidinone compound of formula 1, the fourth and fifth groups being administrated via intravenous injections. […] In the measurement, 5, 10 and 20 Hz of electrostimulations were applied to hypogastric nerves using a stainless steel anode electrode, and the measured results were shown in FIGS. 5 to 8.

A short description of data set [4]: Interrupt rate of administration due to side effects of PDE-5 inhibitors after clinical trials on impotence.
For data set [5] the following is noted: Xenobiotica 2004 34:973-982; cited from earlier work.
Data set [6] is described as follows: Phase 1 clinical trial: safety, tolerability and pharmacokinetics in healthy adults. In kind it is in vivo, human.
The next data set deals with PDE-11 (Homo sapiens, UniProt Q9HCR9).
Another data set deals with PDE-5 (Homo sapiens, UniProt O76074). Briefly: Inhibition of PDE-5 activity. In kind it is biochemical.
The nature of data set [7]: Tissue distribution in urogenital organs. As to conditions: male, Sprague-Dawley, rat, 30 mg/kg.
Description: Male white Sprague-Dawley (SD) rats were randomly assigned by four to five rats at different time points. […] At different time points of 30 minutes, 2 hours and 6 hours after administration, bloods were collected through abdominal aortas and urogenital organs were extracted. Phosphate buffer of pH 7.4 was added to the extracted organs to be homogenized. […] Analyses were performed using a Hichrom HIRPB column (150×4.6 mm, particle size: 5 μm) at fixed wavelength of 292 nm with a mobile phase mixed with 20 nM of KH2PO4 and acetonitrile in a volume ratio of 70:30. The mobile phase flow rate was 1 ml/min. and the amount of sample introduced was 100 ml.
For data set [8] the following is noted: cited from earlier work.

Where two headings read alike, the source gives them in different places.

PDE-11, sequence (Q9HCR9 whole entry): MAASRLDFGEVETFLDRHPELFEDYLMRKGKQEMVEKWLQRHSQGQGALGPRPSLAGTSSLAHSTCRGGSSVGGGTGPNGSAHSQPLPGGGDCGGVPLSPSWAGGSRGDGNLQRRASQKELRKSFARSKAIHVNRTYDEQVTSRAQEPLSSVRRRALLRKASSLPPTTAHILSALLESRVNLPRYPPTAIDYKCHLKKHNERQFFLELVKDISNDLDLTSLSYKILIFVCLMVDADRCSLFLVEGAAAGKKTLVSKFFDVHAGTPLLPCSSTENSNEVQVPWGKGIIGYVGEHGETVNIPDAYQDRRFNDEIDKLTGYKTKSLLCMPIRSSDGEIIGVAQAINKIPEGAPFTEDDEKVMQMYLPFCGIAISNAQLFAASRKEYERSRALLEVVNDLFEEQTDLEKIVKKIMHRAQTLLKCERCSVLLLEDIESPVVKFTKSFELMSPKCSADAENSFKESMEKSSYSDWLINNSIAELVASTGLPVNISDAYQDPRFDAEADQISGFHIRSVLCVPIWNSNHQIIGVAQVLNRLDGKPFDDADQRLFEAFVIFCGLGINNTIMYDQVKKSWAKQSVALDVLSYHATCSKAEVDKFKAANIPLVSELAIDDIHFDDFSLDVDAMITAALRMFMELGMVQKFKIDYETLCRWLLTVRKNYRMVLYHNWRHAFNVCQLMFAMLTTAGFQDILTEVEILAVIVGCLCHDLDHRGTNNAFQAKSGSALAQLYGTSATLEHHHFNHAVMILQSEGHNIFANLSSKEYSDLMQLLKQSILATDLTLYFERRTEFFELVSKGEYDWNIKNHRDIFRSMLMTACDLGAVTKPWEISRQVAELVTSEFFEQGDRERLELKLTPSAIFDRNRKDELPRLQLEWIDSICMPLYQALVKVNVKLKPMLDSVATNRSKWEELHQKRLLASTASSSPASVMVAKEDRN

Take `CCCOc1ccc(S(=O)(=O)NCCC2CCCN2C)cc1-c1nc2c(CCC)nn(C)c2c(=O)[nH]1` (stereo not shown) [Compound of formula 1, 5-[2-propyloxy-5-(1-methyl-2-pyrrolidinylethylamidosulfonyl)phenyl]-1-methyl-propyl-1,6-dihydro-7H-pyrazolo(4,3-d)pyrimidin-7-one]: in the data set with BPH rat models [1], the “intraurethral pressures (IUP)” value was “decreased dose-dependently and significantly”. The half-life is 726 ± 192 min in data set [2] (human, in vivo, 100 mg); 540 to 900 min in data set [2] (male, human, in vivo); 540 to 900 min in [6] (human, in vivo, oral, regardless of the doses administrated, healthy adults). For the same compound, in the data set on BPH rat models [3] (0.3 mg/kg intravenous, 5 and 10 Hz), the “intraurethral pressure, significance of decrease” value is on record as “did not show significant decreases”. The “intraurethral pressure, significance of change” value with BPH rat models [3] (0.3 mg/kg intravenous, 20 Hz) is “significant increase”. The “prevention of increases in the intraurethral pressure in comparison with sildenafil” value in the data set on BPH rat models [3] (single administration, sildenafil of same volume) was “excellent effects”. The “increases in the intraurethral pressure” value in the data set with BPH rat models [3] (single intravenous injection 0.3 and 1 mg/kg, FIGS. 5 to 8) was “prevented dose-dependently”. The “Interrupt rate (%) of administration due to side effects” value (“Interrupt rate (%)” below) is recorded as 0.0% in [4] (100 mg) and 1.2% in data set [4] (200 mg). Also, the “residual rate after liver metabolism” value in data set [5] was 93.0%. Also, the Tmax (usually the time at which the peak concentration occurs) in data set [6] (human, in vivo, after oral administration, healthy adults) fell in the range of 1 to 2 h. Also, in data set [6] (phase 1 clinical trial), the “abnormal responses to the test substance” value is “no serious abnormal responses”. Besides, the accumulation of drug entry in data set [6] (repeated administration once a day for 7 days) was “not observed”. For the same compound, on PDE-11, the “inhibition of the activity of PDE-11” value is “does not have an inhibiting power”. Also, the “inhibitive activity for PDE-5” value against PDE-5 is “strong inhibitive activity”. Further, at PDE-5, the “selectivity for PDE-5” value is recorded as “excellent selectivity”.

As to `CCCc1nc(C)c2c(=O)[nH]c(-c3cc(S(=O)(=O)N4CCN(CC)CC4)ccc3OCC)nn12` [Levitra], the “Interrupt rate (%)” value was 2.7% in data set [4] (5 mg), 2.9% in data set [4] (10 mg) and 6.6% in data set [4] (20 mg).

For `CCCc1nn(C)c2c(=O)[nH]c(-c3cc(S(=O)(=O)N4CCN(C)CC4)ccc3OCC)nc12` [Sildenafil], the half-life in [2] (50 mg, BPH patients, plasma) was 4.1 ± 1.1 time; in data set [2] (male, human, plasma, oral, summary of Table 3, read-out: half-life), 180 to 300 min. In addition, the “Interrupt rate (%)” value was found to be 0.0% in data set [4] (25 mg), 0.7% in data set [4] (50 mg) and 3.9% in [4] (100 mg). In addition, the concentration at 30 min in [7] is 319 ng/mL. The concentration at 120 min in [7] was determined as 633 ng/mL. This compound also gave a concentration at 360 min in data set [7] of 259 ng/mL.

For `CN1CC(=O)N2[C@H](c3ccc4c(c3)OCO4)c3[nH]c4ccccc4c3C[C@@H]2C1=O` [Cialis], the IPSS change in data set [8] (5 mg once a day for 6 weeks) was 2.8 points; in data set [8] (dose increased to 20 mg, additional 6 weeks), 3.8 points. In addition, the “interrupt rate of administration due to the side effects” value in data set [8] (phase 2 clinical trial) is 3.6%. The “Interrupt rate (%)” value came to 0.7% in [4] (5 mg), 1.6% in data set [4] (10 mg) and 3.1% in data set [4] (20 mg).
